{
  "source": "patent US11584709B2",
  "about": "“Multitarget drug for treating diseases in mammals” (“PHARMENTERPRISES EURASIA” LIMITED LIABILITY COMPANY, priority 2017, dated 2023)",
  "key": {"[1]": {"test_system": "motility of the gastrointestinal tract", "test": "Model of irritable bowel syndrome: motility of the gastrointestinal tract (activated carbon)", "type": "in vivo, nonlinear male mice", "protocol": "The effect on the motility of the gastrointestinal tract was studied on a model of irritable bowel syndrome in nonlinear male mice weighing 24-30 g. The animals were intragastrically injected with a solution of activated carbon (50 mg/ml, in a volume of 10 ml/kg) and the speed (in minutes) of the movement of activated coal through the intestines of animals. The compounds under study were intragastrically administered once 1 hour before the introduction of activated carbon. Drotaverine (6.7 mg/kg), Buscopan (3 mg/kg) and Trimedat (33 mg/kg) were used as reference drugs."}, "[2]": {"test_system": "diarrhea induced by castor oil", "test": "Mouse model of diarrhea induced by castor oil", "type": "in vivo, Balb/c mice", "conditions": "1 mg/kg; M ± m, n = 10; observation 4 hours", "protocol": "Balb/c mice, which starved for 24 hours, were given castor oil intragastrically. Then the animals were encaged into individual cages with a bottom covered with white paper, and time before the onset of diarrhea was noted. The observation time is 4 hours (J Pharm Pharmacol. 2015 February; 67(2):244-54)."}, "[3]": {"test_system": "imiquimod-induced psoriasis on the back", "test": "Mouse model of imiquimod-induced psoriasis on the back", "type": "in vivo", "protocol": "Psoriasis was simulated in female balb/c mice by applying Aldar cream (5% imiquimod) on a previously shaved skin back area of 3×4 cm daily 1 time per day for 15 days (J Immunol. 2009 May 1; 182(9):5836-45). Intact animals were applied with vaseline: 120 mg per the shaved back area.\nThe assessment of the development of pathology was performed on the 10th, 12th, 13th and 15th day before the next application of Aldar cream according to the index: the thickness of the skin fold on the back. The thickness of the skin fold on the back was measured with a Digimatic MK-25 micrometer (Mitutoyo, Japan)."}, "[4]": {"test_system": "imiquimod-induced ear psoriasis", "test": "Mouse model of imiquimod-induced ear psoriasis", "type": "in vivo, female balb/c mice", "conditions": "0.05%, M ± m, n = 10", "protocol": "Psoriasis was simulated in female balb/c mice by applying Aldar cream (5% imiquimod) on the inner side of the right ear daily 1 time per day for 10 days (J Immunol. 2009 May 1; 182(9):5836-45). Vaseline was applied to intact animals: 20 mg on the right ear.\nThe assessment of the development of pathology was performed on 2nd, 4th, 6th, 8th and 10th day before the next application of Aldar cream by measuring the thickness of the left and right ears."}, "indomethacin colitis": {"test_system": "indomethacin colitis", "test": "Model of colitis induced by indomethacin", "type": "in vivo, male Wistar rats", "conditions": "day 4", "protocol": "The study was performed on male Wistar rats, which were subcutaneously injected with an indomethacin solution in a dose of 9 mg/kg for two days running to induce colitis. The injection solution was prepared as follows: first, indomethacin was dissolved in 100% ethanol, then it was diluted in 5% NaHCO3 solution. On the 4th day after euthanasia, the stomach and intestine were removed from the animals in the CO2 chamber, then the caecum was excised, 10 cm from the ileum and large intestine was cut off, and 5 cm—from the caecum, to assess gross lesions (J Ethnopharmacol. 2004 February; 90(2-3): 195-204)."}, "model of Crohn's disease": {"test_system": "model of Crohn's disease", "test": "Mouse model of Crohn's disease (TNBS)", "type": "in vivo, male balb/c mice", "conditions": "for The portion of dead animals: TNBS, 7 days, 10 animals", "protocol": "The study was performed on male balb/c mice. Animals, which starved for 24 hours, were injected with 150 μl/mouse of TNBS solution in 50% ethanol into the rectal hole of the mouse to the depth of 4 cm using a 3.5 F catheter. Next, the mice were turned upside down and held for 60 seconds. 150 μl of the 50% ethanol solution was injected into the healthy control (intact animals). The study lasted 7 days. The development of pathology was assessed by the death of animals."}, "[5]": {"conditions": "inducer alone (control group), 9 mg/kg subcutaneously two days running"}},
  "data": [
    {"compound": "CCC(COC(=O)c1cc(OC)c(OC)c(OC)c1)(c1ccccc1)N(C)C.O=C(O)/C=C\\C(=O)O", "note": "(centres unmarked) [Trimedat, reference compound]", "values": [
      {"measurement": "The evacuation speed of activated carbon", "setting": "[1]; 33 mg/kg once intragastrically 1 hour before activated carbon", "result": "83.65 ± 2.42", "unit": "min"}
    ]},
    {"compound": "CCOc1ccc(/C=C2\\NCCc3cc(OCC)c(OCC)cc32)cc1OCC", "note": "[Drotaverine, reference compound]", "values": [
      {"measurement": "The time of onset of diarrhea", "setting": "[2]", "result": "43.60 ± 2.61& min"},
      {"measurement": "The evacuation speed of activated carbon", "setting": "[1]; 6.7 mg/kg once intragastrically 1 hour before activated carbon", "result": "105.85 ± 2.39", "unit": "min"}
    ]},
    {"compound": "CCC(=O)O[C@]1(C(=O)CCl)[C@@H](C)C[C@H]2[C@@H]3CCC4=CC(=O)C=C[C@]4(C)[C@@]3(F)[C@@H](O)C[C@@]21C", "note": "[Dermovate, clobetasol, reference compound]", "values": [
      {"measurement": "The gain of the thickness of the back skin to the thickness before the start of the study", "setting": "[3]; 0.05%, day 10, M ± m, n = 10", "result": "−26.8", "unit": "%"},
      {"measurement": "toxic effect", "setting": "[3]; on the 12th day of the study, thinning the skin", "result": "total death of animals"},
      {"measurement": "The gain in the thickness of the right (affected) ear relatively day 0", "setting": "[4]; day 2", "result": 18.9, "unit": "%"},
      {"measurement": "The gain in the thickness of the right (affected) ear relatively day 0", "setting": "[4]; day 4", "result": 22.6, "unit": "%"},
      {"measurement": "The gain in the thickness of the right (affected) ear relatively day 0", "setting": "[4]; day 6", "result": 24.6, "unit": "%"},
      {"measurement": "The gain in the thickness of the right (affected) ear relatively day 0", "setting": "[4]; day 8", "result": 21.3, "unit": "%"},
      {"measurement": "The gain in the thickness of the right (affected) ear relatively day 0", "setting": "[4]; day 10", "result": 16.5, "unit": "%"}
    ]},
    {"compound": "COc1ccc2c(c1)c(CC(=O)O)c(C)n2C(=O)c1ccc(Cl)cc1", "note": "[Indomethacin]", "values": [
      {"measurement": "Macroscopic assessment of the lesion, Caecum", "setting": "indomethacin colitis; [5]", "result": "1.2 ± 0.4", "unit": "points"},
      {"measurement": "Macroscopic assessment of the lesion, Ileum", "setting": "indomethacin colitis; [5]", "result": "5.6 ± 1.2", "unit": "points"},
      {"measurement": "Macroscopic assessment of the lesion, Large intestine", "setting": "indomethacin colitis; [5]", "result": "1.2 ± 0.3", "unit": "points"},
      {"measurement": "Macroscopic assessment of the lesion, Overall assessment", "setting": "indomethacin colitis; [5]", "result": "8.0 ± 1.3", "unit": "points"}
    ]},
    {"compound": "C[C@]12C=CC(=O)C=C1CC[C@@H]1[C@@H]2[C@@H](O)C[C@@]2(C)[C@H]1CC[C@]2(O)C(=O)CO", "note": "[Prednisolone]", "values": [
      {"measurement": "Macroscopic assessment of the lesion, Caecum", "setting": "indomethacin colitis; 2 mg/kg, M ± m, n = 10", "result": "0.3 ± 0.2& points"},
      {"measurement": "Macroscopic assessment of the lesion, Ileum", "setting": "indomethacin colitis; 2 mg/kg, M ± m, n = 10", "result": "0.6 ± 0.6& points"},
      {"measurement": "Macroscopic assessment of the lesion, Large intestine", "setting": "indomethacin colitis; 2 mg/kg, M ± m, n = 10", "result": "0.4 ± 0.2", "unit": "points"},
      {"measurement": "Macroscopic assessment of the lesion, Overall assessment", "setting": "indomethacin colitis; 2 mg/kg, M ± m, n = 10", "result": "1.3 ± 0.9& points"},
      {"measurement": "The portion of dead animals", "setting": "model of Crohn's disease; 5 mg/kg, 1 time per day", "result": 80, "unit": "%"},
      {"measurement": "The portion of dead animals", "setting": "model of Crohn's disease; 10 mg/kg", "result": 60, "unit": "%"},
      {"measurement": "reduction of the mortality", "setting": "model of Crohn's disease; summary of Table 4", "result": "20-40%"}
    ]},
    {"compound": "CCCC[N+]1(C)[C@@H]2C[C@@H](OC(=O)[C@H](CO)c3ccccc3)C[C@H]1[C@@H]1O[C@@H]12", "note": "(some centres unmarked) [Buscopan, reference compound]", "values": [
      {"measurement": "The evacuation speed of activated carbon", "setting": "[1]; 3 mg/kg once intragastrically 1 hour before activated carbon", "result": "73.2 ± 2.87", "unit": "min"}
    ]},
    {"compound": "CN(C)C(=O)C(CCN1CCC(O)(c2ccc(Cl)cc2)CC1)(c1ccccc1)c1ccccc1", "note": "[Loperamide, reference compound]", "values": [
      {"measurement": "The time of onset of diarrhea", "setting": "[2]", "result": "56.40 ± 5.14& min"}
    ]}
  ]
}
